ChEMBL document CHEMBL4680351, “Antimicrobial and cytotoxic effects of ammonium derivatives of diterpenoids steviol and isosteviol” (Bioorg Med Chem, 2021)
In brackets after ≈: the same amount, converted by molar mass. One block for each compound: values may come before it. Activity calls are given as the source filed them. No cut-off for these calls is given here.

What was measured:
PC-3 = assay: Cytotoxicity against human PC-3 cells assessed as reduction in cell viability by DAPI staining based assay
T98G = assay: Cytotoxicity against human T98G cells assessed as reduction in cell viability by DAPI staining based assay
Staphylococcus aureus [1] = assay: Bactericidal activity against Staphylococcus aureus MRSA-1 measured every 24 hrs for 5 days by serial dilution method; type: functional; details: MRSA-1, 120 h, time 5 day
A549 = assay: Cytotoxicity against human A549 cells assessed as reduction in cell viability by DAPI staining based assay
Staphylococcus aureus [2] = assay: Bactericidal activity against Staphylococcus aureus MRSA-2 measured every 24 hrs for 5 days by serial dilution method; type: functional; details: MRSA-2, 120 h, time 5 day
HeLa = assay: Cytotoxicity against human HeLa cells assessed as reduction in cell viability by DAPI staining based assay
Staphylococcus aureus [3] = assay: Bactericidal activity against Staphylococcus aureus 209P measured every 24 hrs for 5 days by serial dilution method; type: functional; details: 120 h, time 5 day
HepG2 = assay: Cytotoxicity against human HepG2 cells assessed as reduction in cell viability by DAPI staining based assay
Staphylococcus aureus [4] = assay: Antibacterial activity against Staphylococcus aureus MRSA-2 assessed as bacterial growth inhibition in Mueller-Hinton broth 2 measured every 24 hrs for 5 days by serial dilution method; type: functional; details: MRSA-2, 120 h, time 5 day
[5] = Hemolytic activity against human erythrocytes after 1 hr by digital photoelectric colorimetric method; type: ADME, cell-based, Erythrocyte
MCF7 [6] = assay: Cytotoxicity against human MCF7 cells assessed as reduction in cell viability by DAPI staining based assay; type: functional
Staphylococcus aureus [7] = assay: Antibacterial activity against Staphylococcus aureus 209P assessed as bacterial growth inhibition; type: functional
Staphylococcus aureus [8] = assay: Antibacterial activity against Staphylococcus aureus MRSA-1 assessed as bacterial growth inhibition in Mueller-Hinton broth 2 measured every 24 hrs for 5 days by serial dilution method; type: functional; details: MRSA-1, 120 h, time 5 day
WI-38 = assay: Cytotoxicity against human WI-38 cells assessed as reduction in cell viability by DAPI staining based assay
Staphylococcus aureus [9] = assay: Antibacterial activity against Staphylococcus aureus 209P assessed as bacterial growth inhibition in Mueller-Hinton broth 2 measured every 24 hrs for 5 days by serial dilution method; type: functional; details: 120 h, time 5 day
Cell membrane [10] = assay: Induction of cytoplasmic membrane damage in Staphylococcus aureus 209P assessed as crystal violet absorption at 6 uM after 30 mins by crystal violet staining based microplate reader analysis (reference value: […] %); type: subcellular
MCF7 [11] = assay: Induction of apoptosis in human MCF7 cells assessed as late apoptotic cells at 5 uM after 24 hrs by annexin V-FITC and propidium iodide staining based flow cytometry (reference value: 3.4 %); type: functional
MCF7 [12] = assay: Induction of apoptosis in human MCF7 cells assessed as activation of p53 at 5 uM after 24 hrs by fluorescence assay; type: functional, cell-based
Cell membrane [13] = assay: Induction of cytoplasmic membrane damage in Staphylococcus aureus 209P assessed as crystal violet absorption at 1.5 uM after 30 mins by crystal violet staining based microplate reader analysis (reference value: […] %); type: subcellular
Staphylococcus aureus [14] = assay: Induction of morphological changes in Staphylococcus aureus 209P assessed as change in cytoplasmic content at 3 uM by TEM analysis; type: functional, organism-based
MCF7 [15] = assay: Induction of apoptosis in human MCF7 cells assessed as viable cells at 10 uM after 24 hrs by annexin V-FITC and propidium iodide staining based flow cytometry (reference value: 91.42 %); type: functional; details: read-out: Activity
MCF7 [16] = assay: Induction of apoptosis in human MCF7 cells assessed as late apoptotic cells at 10 uM after 24 hrs by annexin V-FITC and propidium iodide staining based flow cytometry (reference value: 3.4 %); type: functional
Cell membrane [17] = assay: Induction of cytoplasmic membrane damage in Staphylococcus aureus 209P assessed as crystal violet absorption at 3 uM after 30 mins by crystal violet staining based microplate reader analysis (reference value: […] %); type: subcellular
Cell membrane [18] = assay: Induction of cytoplasmic membrane damage in Staphylococcus aureus 209P assessed as crystal violet absorption at 0.7 uM after 30 mins by crystal violet staining based microplate reader analysis (reference value: […] %); type: subcellular
MCF7 [19] = assay: Induction of apoptosis in human MCF7 cells assessed as dead cells at 5 uM after 24 hrs by annexin V-FITC and propidium iodide staining based flow cytometry (reference value: 0.15 %); type: functional
Staphylococcus aureus [20] = assay: Induction of morphological changes in Staphylococcus aureus 209P assessed as cytoplasmic disintegration at 3 uM by TEM analysis; type: functional, organism-based
MCF7 [21] = assay: Induction of mitochondrial membrane potential loss in human MCF7 cells assessed as cell population with intact mitochondrial membrane potential at 5 uM after 24 hrs by JC-10 staining-based flow cytometric analysis (reference value: 98.73 %); type: functional
[22] = Selectivity index, ratio of IC50 for human WI-38 cells to IC50 for human HeLa cells; type: toxicity; details: WI-38 cells versus HeLa cells, read-out: Ratio IC50
Staphylococcus aureus [23] = assay: Induction of morphological changes in Staphylococcus aureus 209P assessed as cell lysis at 3 uM by TEM analysis; type: functional, organism-based
MCF7 [24] = assay: Induction of mitochondrial membrane potential loss in human MCF7 cells assessed as cell population with intact mitochondrial membrane potential at 10 uM after 24 hrs by JC-10 staining-based flow cytometric analysis (reference value: 98.73 %); type: functional
[25] = Selectivity index, ratio of IC50 for human WI-38 cells to IC50 for human T98G cells; type: toxicity; details: WI-38 cells versus T98G cells, read-out: Ratio IC50
MCF7 [26] = assay: Induction of apoptosis in human MCF7 cells assessed as activation of Akt at 5 uM after 24 hrs by fluorescence assay; type: functional, cell-based
[27] = Selectivity index, ratio of IC50 for human WI-38 cells to IC50 for human MCF7 cells; type: toxicity; details: WI-38 cells versus MCF7 cells, read-out: Ratio IC50
Staphylococcus aureus [28] = assay: Induction of morphological changes in Staphylococcus aureus 209P assessed as cell wall damage at 3 uM by TEM analysis; type: functional, organism-based
MCF7 [29] = assay: Induction of apoptosis in human MCF7 cells assessed as viable cells at 5 uM after 24 hrs by annexin V-FITC and propidium iodide staining based flow cytometry (reference value: 91.42 %); type: functional; details: read-out: Activity
MCF7 [30] = assay: Induction of apoptosis in human MCF7 cells assessed as activation of Bcl-2 at 5 uM after 24 hrs by fluorescence assay; type: functional, cell-based
[31] = Selectivity index, ratio of IC50 for human WI-38 cells to IC50 for human HepG2 cells; type: toxicity; details: WI-38 cells versus HepG2 cells, read-out: Ratio IC50
Staphylococcus aureus [32] = assay: Bacteriostatic activity against Staphylococcus aureus MRSA-2 measured every 24 hrs for 5 days by serial dilution method relative to amoxicillin; type: functional; details: time 5 day
MCF7 [33] = assay: Induction of apoptosis in human MCF7 cells assessed as early apoptotic cells at 5 uM after 24 hrs by annexin V-FITC and propidium iodide staining based flow cytometry (reference value: 5.03 %); type: functional
MCF7 [34] = assay: Induction of apoptosis in human MCF7 cells assessed as activation of caspase-9 at 5 uM after 24 hrs by fluorescence assay relative to control; type: functional
MCF7 [35] = assay: Induction of apoptosis in human MCF7 cells assessed as early apoptotic cells at 10 uM after 24 hrs by annexin V-FITC and propidium iodide staining based flow cytometry (reference value: 5.03 %); type: functional
[36] = Selectivity index, ratio of IC50 for human WI-38 cells to IC50 for human PC-3 cells; type: toxicity; details: WI-38 cells versus PC-3 cells, read-out: Ratio IC50
MCF7 [37] = assay: Induction of mitochondrial membrane potential loss in human MCF7 cells assessed as cell population with mitochondrial membrane potential collapse at 5 uM after 24 hrs by JC-10 staining-based flow cytometric analysis (reference value: 1.05 %); type: functional
Staphylococcus aureus [38] = assay: Bacteriostatic activity against Staphylococcus aureus MRSA-1 measured every 24 hrs for 5 days by serial dilution method; type: functional, organism-based
MCF7 [39] = assay: Induction of mitochondrial membrane potential loss in human MCF7 cells assessed as cell population with mitochondrial membrane potential collapse at 10 uM after 24 hrs by JC-10 staining-based flow cytometric analysis (reference value: 1.05 %); type: functional
MCF7 [40] = assay: Induction of apoptosis in human MCF7 cells assessed as activation of caspase-8 at 5 uM after 24 hrs by fluorescence assay; type: functional, cell-based
[41] = Selectivity index, ratio of IC50 for human WI-38 cells to IC50 for human A549 cells; type: toxicity; details: WI-38 cells versus A549 cells, read-out: Ratio IC50
Staphylococcus aureus [42] = assay: Bacteriostatic activity against Staphylococcus aureus MRSA-2 measured every 24 hrs for 5 days by serial dilution method; type: functional, organism-based; details: time 5.0 day
MCF7 [43] = assay: Induction of apoptosis in human MCF7 cells assessed as dead cells at 10 uM after 24 hrs by annexin V-FITC and propidium iodide staining based flow cytometry (reference value: 0.15 %); type: functional
MCF7 [44] = assay: Induction of apoptosis in human MCF7 cells assessed as activation of JNK at 5 uM after 24 hrs by fluorescence assay; type: functional, cell-based
MCF7 [45] = assay: Induction of apoptosis in human MCF7 cells assessed as activation of Bad at 5 uM after 24 hrs by fluorescence assay; type: functional, cell-based

MIC (Staphylococcus aureus [4]): 112 µM | MIC (Staphylococcus aureus [7]): 55.8 µM | MIC (Staphylococcus aureus [8]): 223 µM
Compound: C[C@@]12CC[C@@H]3[C@@](CC[C@H]4[C@@]3(C)CCC[C@@]4(C)C(=O)OCC[N+](C)(C)Cc3ccccc3)(CC1=O)C2
IC50 (PC-3): > 100 µM | IC50 (T98G): > 100 µM | MBC (Staphylococcus aureus [1]): 223 µM | IC50 (A549): > 100 µM | MBC (Staphylococcus aureus [2]): 112 µM | IC50 (HeLa): > 100 µM | MBC (Staphylococcus aureus [3]): 55.8 µM | IC50 (HepG2): > 100 µM | HC50 at 1 h [5]: > 100 µM | IC50 (MCF7 [6]): > 100 µM | IC50 (WI-38): > 100 µM

MIC (Staphylococcus aureus [9]): 0.7 µM (≈ 0.256 µg/mL) | MIC (Staphylococcus aureus [4]): 85.7 µM (≈ 31.3 µg/mL) | MIC (Staphylococcus aureus [8]): 85.7 µM (≈ 31.3 µg/mL)
Compound: CC1(C)S[C@@H]2[C@H](NC(=O)[C@H](N)c3ccc(O)cc3)C(=O)N2[C@H]1C(=O)O [AMOXICILLIN]
MBC (Staphylococcus aureus [1]): 85.7 µM (≈ 31.3 µg/mL) | MBC (Staphylococcus aureus [2]): 85.7 µM (≈ 31.3 µg/mL) | MBC (Staphylococcus aureus [3]): 2.5 µM (≈ 0.914 µg/mL)

Compound: C[C@@]12CC[C@@H]3[C@@](CC[C@H]4[C@@]3(C)CCC[C@@]4(C)C(=O)OCC[N+](C)(C)CCCCCCCCCCCC[N+](C)(C)CCOC(=O)[C@]3(C)CCC[C@@]4(C)[C@@H]5CC[C@@]6(C)C[C@]5(CC[C@@H]43)CC6=O)(CC1=O)C2.[Br-].[Br-]
IC50 (PC-3): 13 µM | Activity (Cell membrane [10]): 63% | Activity (MCF7 [11]): 25.95% | Activity (MCF7 [12]): Active | Activity (Cell membrane [13]): 13% | Activity (Staphylococcus aureus [14]): Active | viability at 10 µM (MCF7 [15]): 24.9% | Activity (MCF7 [16]): 28.47% | Activity (Cell membrane [17]): 24% | IC50 (T98G): 39.6 µM | Activity (Cell membrane [18]): 7% | MBC (Staphylococcus aureus [1]): 2.8 µM | IC50 (A549): 12.5 µM | Activity (MCF7 [19]): 16.61% | Activity (Staphylococcus aureus [20]): Active | Activity (MCF7 [21]): 88.28% | MBC (Staphylococcus aureus [2]): 1.4 µM | selectivity ratio [22]: 1.1 | Activity (Staphylococcus aureus [23]): Active | IC50 (HeLa): 22 µM | MBC (Staphylococcus aureus [3]): 0.7 µM | IC50 (HepG2): 19.5 µM | Activity (MCF7 [24]): 7.76% | selectivity ratio [25]: 0.6 | Activity (MCF7 [26]): Active | selectivity ratio [27]: 5 | Activity (Staphylococcus aureus [28]): Active | viability at 5 µM (MCF7 [29]): 29.9% | Activity (MCF7 [30]): inactive | selectivity ratio [31]: 1.3 | MIC (Staphylococcus aureus [4]): 1.4 µM | fold change (FC) (Staphylococcus aureus [32]): 15 | Activity (MCF7 [33]): 27.59% | fold change (FC) (MCF7 [34]): >=2 | Activity (MCF7 [35]): 41.39% | selectivity ratio [36]: 1.9 | Activity (MCF7 [37]): 11.65% | Activity (Staphylococcus aureus [38]): Active | Activity (MCF7 [39]): 92.1% | HC50 at 1 h [5]: 20.3 µM | Activity (MCF7 [40]): inactive | IC50 (MCF7 [6]): 5 µM | selectivity ratio [41]: 2 | MIC (Staphylococcus aureus [7]): 0.7 µM | Activity (Staphylococcus aureus [42]): Active | Activity (MCF7 [43]): 5.24% | Activity (MCF7 [44]): Active | MIC (Staphylococcus aureus [8]): 2.8 µM | IC50 (WI-38): 25 µM | Activity (MCF7 [45]): Active
